In US20030036531A1, “Use of lysophospholipids to inhibit mammalian phospholipase D” (Wisconsin Alumni Research Foundation, priority 2001, published 2003):

What was measured:
[1] = target: T1, partially purified PLD from rat brain membrane (Rattus norvegicus, UniProt P70496); assay: Measurement of PLD activity (partially purified rat brain PLD, 14C-PC substrate, TLC); type: biochemical; conditions: for Km for PLD in the presence of inhibitor: Km without inhibitor 33.3 μM PC; for Vmax in the presence of inhibitor: Vmax without inhibitor 166.7 pmol/h, Lineweaver-Burk; for PLD activity, % of the control: 10 μM compound, standard mixture with 4.8 μM PIP2, 100 nM Arf, 5 μM GTPγS; for IC50: FIG. 2, read-out: Half-maximal inhibition of PLD activity
T1 construct: The activity of partially purified PLD from rat brain membrane was assayed; tissue Dr. Sue Goo Rhee (National Institutes of Health, Bethesda, Md.); host or cells: rat brain membranes
T1 sequence (P70496 1-1074): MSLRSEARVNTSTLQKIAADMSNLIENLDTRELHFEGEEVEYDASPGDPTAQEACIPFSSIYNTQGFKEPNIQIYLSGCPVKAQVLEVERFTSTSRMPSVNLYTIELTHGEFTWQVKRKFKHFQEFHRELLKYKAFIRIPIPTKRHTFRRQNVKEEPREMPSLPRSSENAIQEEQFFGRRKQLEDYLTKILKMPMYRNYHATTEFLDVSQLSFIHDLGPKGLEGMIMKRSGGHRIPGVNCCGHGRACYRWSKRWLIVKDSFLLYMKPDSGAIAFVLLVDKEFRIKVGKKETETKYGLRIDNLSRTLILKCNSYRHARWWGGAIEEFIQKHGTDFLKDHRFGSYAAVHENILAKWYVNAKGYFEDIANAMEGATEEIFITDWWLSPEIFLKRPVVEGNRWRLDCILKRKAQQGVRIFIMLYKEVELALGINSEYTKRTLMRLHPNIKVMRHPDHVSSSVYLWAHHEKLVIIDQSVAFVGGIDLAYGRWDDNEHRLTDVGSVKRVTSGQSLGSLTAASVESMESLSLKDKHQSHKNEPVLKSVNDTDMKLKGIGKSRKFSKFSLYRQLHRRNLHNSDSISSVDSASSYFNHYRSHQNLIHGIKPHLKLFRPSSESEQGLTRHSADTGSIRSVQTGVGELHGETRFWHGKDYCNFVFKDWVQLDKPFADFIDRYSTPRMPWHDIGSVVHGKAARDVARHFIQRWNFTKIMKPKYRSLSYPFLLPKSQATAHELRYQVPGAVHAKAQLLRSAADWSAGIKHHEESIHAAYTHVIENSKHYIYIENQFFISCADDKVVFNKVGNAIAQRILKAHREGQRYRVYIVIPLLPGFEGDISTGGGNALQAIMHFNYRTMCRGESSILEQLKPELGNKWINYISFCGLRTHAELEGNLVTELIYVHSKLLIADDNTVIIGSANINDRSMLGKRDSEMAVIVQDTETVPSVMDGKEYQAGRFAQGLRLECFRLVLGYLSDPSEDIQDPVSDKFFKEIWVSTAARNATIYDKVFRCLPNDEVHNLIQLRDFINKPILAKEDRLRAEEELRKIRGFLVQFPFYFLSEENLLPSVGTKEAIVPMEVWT

[2] = target: T2, rat brain PLD (Rattus norvegicus, UniProt P70496); assay: Binding of lysophospholipids to PLD (vesicle precipitation assay followed by immunoblot); conditions: 1 mM vesicles, 1,500 fold excess BSA
T2 construct: 200 ng of rat brain PLD; tissue Dr. Sue Goo Rhee (National Institutes of Health, Bethesda, Md.); host or cells: rat brain membranes
T2 sequence (P70496 1-1074): T1 sequence (P70496 1-1074)
Method: The binding ability of lysophospholipids to PLD was estimated by precipitation assay followed by immunoblot. The final assay volume was 0.3 ml containing 50 mM Hepes (pH 7.5), 3 mM EGTA, 80 mM KCl, 2.5 MM MgCl2, 2 mM CaCl2, 1% ethanol, 5 μM GTPγS, 33 nM myristoylated Arf, 300 μg of BSA, 200 ng of rat brain PLD and 1 mM lysophospholipid or phospholipid vesicles. After incubation at 37° C. for 10 minutes, the mixture was cooled in ice-water for 30 minutes and centrifuged at 17,000×g for 30 minutes at 4° C. The precipitant of lysophospholipid vesicles containing bound PLD in the excess of BSA (1,500 fold than rat PLD) was resuspended in 20 μL PBS (pH 7.5). The bound PLD was separated by 8% SDS-PAGE without reducing agent (2-mercaptoethanol) in sample loading buffer and transferred onto immunoblot membrane. The membrane was blotted with rabbit-PLD antibodies that detect both PLD 1 and PLD 2 isozymes. The PLD-antibody complex was visualized by staining alkaline phosphatase conjugated to a second antibody (Bio-Rad, Hercules, Calif.).

[3] = system: human prostate cancer cell line PC-3; assay: PC-3 cell growth (cell viability after trypan blue staining); type: cell-based
Method: The influence of lysophospholipids on the inhibition of cancer cell growth was investigated. For this purpose, human prostate cancer cell line PC-3 was used. PC-3 cells were cultured using standard RPMI 1640 medium supplemented with 5% fetal bovine serum (FBS). The composition of RPMI 1640 included inorganic salts, glucose, amino acids and vitamins (see Rajesh, D., et al., Molecular Pharmacology 56:515-525 (1999) for details). PC-3 cells were cultured in the presence of various presence of various phospholipids. At appropriate times after treatment the cells were treated by trypsin EDTA treatment, washed twice in an ice cold buffer and analyzed for cell viability after staining with trypan blue (Sawicki, W., et al., Stain Technology 42:143 (1967)).

[4] = system: PLD from plant tissues; conditions: cited from earlier work
[5] = system: PLD activity in PC-3 cells; conditions: cited from earlier work

lysophosphatidylinositol [LPI]
inhibition of PLD activity ([1]; 160 nM): 19% | inhibition of PLD activity ([1]; 640 nM): 27% | PLD activity, % of the control, in the absence of Arf ([1]; 4 μM inhibitor, no Arf (no Arf alone: 72%)): 33% | Km for PLD in the presence of inhibitor ([1]; 4 μM inhibitor): did not change | Vmax in the presence of inhibitor ([1]; 4 μM inhibitor): 76.9 pmol/h | PLD activity, % of the control [1]: 23.3% | change of PLD activity by addition of myristoylated Arf in presence of inhibitor ([1]; 15 μM inhibitor): not significantly changed | IC50 [1]: 3 µM | PLD inhibition when PIP2 concentration tripled ([1]; LPI 4 μM, LPS 12 μM, PIP2 4.8 vs 14.4 μM): not significantly changed | co-precipitation of PLD proteins with lipid vesicles [2]: co-precipitated | inhibition of PC-3 cell growth, lyso form vs phospholipid and inositol (FIG. 7) [3]: able to inhibit the PC-3 cell growth | retardation of PC-3 cell growth (FIG. 8) [3]: able to retard the growth of PC-3 cells | inhibition of PC-3 cell growth, concentration dependence (FIG. 9) ([3]; 100 μM): very inhibitory

eLPE [reference compound]
effect on rat brain PLD activity ([1]; 10 μM (FIG. 1)): not inhibited but rather slightly stimulated

C=C(C)[C@@H]1CC=C(CO)CC1 [perillyl alcohol, reference compound]
inhibition of PC-3 cell growth compared to LPI (FIG. 10) ([3]; 1 mM): not as strong inhibitor of PC-3 cell growth as compared to LPI

lysophosphatidylglycerol [LPG]
PLD activity, % of the control [1]: 24.9% | retardation of PC-3 cell growth (FIG. 8) [3]: able to retard the growth of PC-3 cells | inhibition of activity of PLD from plant tissues [4]: not significantly inhibited

N[C@@H](CO)C(=O)O [serine, reference compound]
inhibition of PLD activity by headgroups ([1]; 10 μM): None of the headgroups such as choline, glycerol, inositol, or serine significantly inhibited PLD activity

lysophosphatidylserine [LPS]
Km for PLD in the presence of inhibitor ([1]; 4 μM inhibitor): did not change | Vmax in the presence of inhibitor ([1]; 4 μM inhibitor): 121.5 pmol/h | PLD activity, % of the control [1]: 30.3% | IC50 [1]: 6 µM | inhibition of activity of PLD from plant tissues [4]: not significantly inhibited

Triton X-100 [reference compound]
stimulatory effect on PLD activity ([1]; 10 μM): 6-9%

lysophosphatidylcholine [LPC, reference compound]
PLD activity, % of the control [1]: 61.0% | retardation of PC-3 cell growth (FIG. 8) [3]: able to retard the growth of PC-3 cells | inhibition of activity of PLD from plant tissues [4]: not significantly inhibited

CCCCCCCC/C=C\CCCCCCCC(=O)O [oleate, reference compound]
inhibition at 20 µM ([1]; 20 μM): 10% | inhibition at 40 µM ([1]; 40 μM): 20%

lysophosphatidic acid [reference compound]
stimulation of rat brain PLD ([1]; 10 and 20 μM, assay contains Arf and PIP2): not stimulated | effect on PLD activity in PC-3 cells [5]: stimulate PLD activity

O[C@H]1[C@H](O)[C@@H](O)[C@H](O)[C@@H](O)[C@H]1O [inositol, reference compound]
inhibition of PLD activity by headgroups ([1]; 10 μM): None of the headgroups such as choline, glycerol, inositol, or serine significantly inhibited PLD activity
